We go through 10 compounds from patent US4080450A, “2-Carbamoyl-1,2,4,5-tetrahydro-3H-2-benzazepin-3-ones” (U C B, Societe Anonyme, priority 1976, dated 1978).

A short description of data set [1]: Brevatonal test (protection against hypoxic type aggressions). The following applies: i.p. It is filed as in vivo, mice. The method, then:
At the doses used, this curarizing agent brings about a respiratory depression which, in turn, brings about a hypoxi-hypercapnic syndrome. A compound capable of protecting the brain during this short period of hypoxia ensures survival. The compounds are administered to groups of 10 mice one hour before the injection of the curarizing agent; concurrently herewith, a control group of 10 mice is given a physiological salt solution prior to the curarizing agent. For each compound, the proportion of mice which survive is compared to the proportion of control mice which survive by the "Fisher exact probability test". This test, called the Brevatonal test, has also been developed in our laboratories.
Intraperitoneal administration (i.p.) of compounds according to the present invention, namely, 2-methylcarbamoyl-1,2,4,5-tetrahydro-3H-2-benzazepin-3-one (compound A), 4,5-dimethyl-2-methylcarbamoyl-1,2,4,5-tetrahydro-3H-2-benzazepin-3-one (compound B) and 4-n-butyl-2-methylcarbamoyl-1,2,4,5-tetrahydro-3H-2-benzazepin-3-one (compound I) under these conditions produced the effects summarized in the following Table II.

Data set [2] can be described thus: active avoidance test (memory retention). To be noted: for minimal effective dose: Rattus norvegicus, sc, subcutaneous, minimum dose which lowers the stimulus to below 110 g. It is filed as in vivo, rat. From the text:
The principle of the active avoidance test, which has been developed in our laboratories and used for this purpose, may be described as follows: the withdrawal reaction of a rat's paw subjected to increasing and measured pressure is observed. The pressure at which the withdrawal reaction is produced is called the reaction threshold. The latter is expressed in grams and thus corresponds to the minimum pressure which, when applied to the paw of the animals causes withdrawal. It is read off directly from a scale on the apparatus used. […] A minimum of 20 rats are used for each test (10 treated rats and 10 control rats), the active dose being defined as the minimum dose which lowers the stimulus to below 110 g.
*Stimulus (expressed in g.) initiating the avoidance reaction 24 hours
after the first stimulation.

For data set [3] the following is noted: 30 mg./kg. (0.2 mmole/kg.), Giurgea and Mouravieff-Lesuisse, cited from earlier work.
A short description of data set [4]: spinal fixation time test (elementary model of memory). It is filed as in vivo, rat. To be noted: i.p. From the text:
Action on the mnemic processes is shown, in particular, by a reduction in the time for spinal fixation, a test which has been described in the literature (C. GIURGEA and F. MOURAVIEFF-LESUISSE, Arch.Int.Pharmacodyn. 191,(2),(1971),279) as an elementary model of memory and which is endowed with a pharmacological reactivity in good correlation with the clinical physiopathology. In the rat, after unilateral lesion of the cerebellum, there is a postural asymmetry of the hind paws. This asymmetry may persist, even after spinal section, if the animal has been in this situation for a sufficiently long period of time. This time, which is called the spinal fixation time, is 45 minutes under the experimental conditions. On the other hand, if spinal section is performed before the expiry of this period, for example 35 minutes after the onset of the asymmetry, the latter disappears. […] Conversely, any compound which allows the rats to retain the asymmetry (thus achieving spinal fixation) when the spinal section is carried out after 35 minutes, is regarded as being active.
Under these conditions, administration of a compound according to the present invention, for example 2-methyl-carbamoyl-1,2,4,5-tetrahydro-3H-2-benzazepin-3-one (compound A) or 4,5-dimethyl-2-methylcarbamoyl-1,2,4,5-tetrahydro-3H-2-benzazepin-3-one(compound B), produces the following effects: […]

A short description of data set [5]: toxicity, lethal dose (LD50). The following applies: in vivo, ip; rat, intraperitoneal. As for the experimental part: The new compounds according to the present invention appear to have a remarkably low toxicity. For example, for compound A, the lethal dose (LD50) in the rat, when administered intraperitoneally, is more than 1000 mg./kg.

“And” between values parts separate entries of the source, which are not always exact repeats. Equal values may be shown once. Read-outs that look alike come from different tables or passages of the source. Some results are limits rather than exact numbers.

For orientation: minimal effective dose means the lowest level tested that produced the effect sought. A high value points to weaker potency. By LD50 is commonly meant the dose at which mortality reaches 50%. A higher LD50 goes with a less toxic substance.

Take `NC(=O)CN1CCCC1=O` [piracetam, reference compound]: the “Proportion of survivors, treated animals” value in data set [1] (45 mg./kg. (0.32 mmole/kg.), control 0/10) is given as 1/10; in data set [1] (142 mg./kg. (1 mmole/kg.), control 2/10), 4/10; in data set [1] (454 mg./kg. (3.2 mmole/kg.), control 1/10) it was 8/10. Also, in data set [2], the minimal effective dose is 3.5 mg/kg and 25 µmol/kg. Besides, the “Stimulus initiating the avoidance reaction 24 hours after the first stimulation” value in data set [2] (subcut. dose 1.5 mg./kg., control (dose 0) 153) is 120 g; in data set [2] (subcut. dose 3.5 mg./kg., control (dose 0) 153) it was 90 g. The “retention of the earlier test” value in data set [2] (tested 24 hours later, versus control animals) is given as “significant degree of retention”. Also, the “spinal fixation after 35 minutes (animals)” value (from here on “spinal fixation … (animals)”) in data set [3] (same conditions) is “four animals out of nine”. Besides, the “activity in spinal fixation test” value in data set [3] is given as “active”.

With `CCCCNC(=O)N1C(=O)CCc2cc(OC)ccc2C1c1ccccc1` (stereo not shown) [G, 2-n-butylcarbamoyl-7-methoxy-1-phenyl-1,2,4,5-tetrahydro-3H-2-benzazepin-3-one], the “Stimulus initiating the avoidance reaction 24 hours after the first stimulation” value in data set [2] (subcut. dose 0.72 mg./kg.) worked out at 106 g; in data set [2] (subcut. dose 3.66 mg./kg.) it was 95 g.

On to `CNC(=O)N1Cc2ccc(Cl)cc2CC(C)C1=O` (stereo not shown) [E, 7-chloro-4-methyl-2-methylcarbamoyl-1,2,4,5-tetrahydro-3H-2-benzazepin-3-one], for which, in data set [2], the minimal effective dose was 0.53 mg/kg and 2 µmol/kg. The “Stimulus initiating the avoidance reaction 24 hours after the first stimulation” value was 115 g in data set [2] (subcut. dose 0.26 mg./kg., control (dose 0) 163) and 83 g in data set [2] (subcut. dose 0.53 mg./kg., control (dose 0) 163).

Consider `CCCCNC(=O)N1Cc2ccccc2CCC1=O` [F, 2-n-butylcarbamoyl-1,2,4,5-tetrahydro-3H-2-benzazepin-3-one], for which the minimal effective dose in data set [2] was < 0.2 mg/kg and < 0.8 µmol/kg. Also, in data set [2] (subcut. dose 0.2 mg./kg., control (dose 0) 159), the “Stimulus initiating the avoidance reaction 24 hours after the first stimulation” value amounted to 92 g.

Turning to `CNC(=O)N1Cc2ccc(Cl)cc2CCC1=O` [D, 7-chloro-2-methylcarbamoyl-1,2,4,5-tetrahydro-3H-2-benzazepin-3-one], the minimal effective dose in data set [2] was 2.52 mg/kg and 10 µmol/kg. The “Stimulus initiating the avoidance reaction 24 hours after the first stimulation” value was found to be 122 g in data set [2] (subcut. dose 1.26 mg./kg., control (dose 0) 157) and 100 g in data set [2] (subcut. dose 2.52 mg./kg., control (dose 0) 157).

Regarding `CN(C)C(=O)N1Cc2ccccc2CCC1=O` [H, 2-dimethylcarbamoyl-1,2,4,5-tetrahydro-3H-2-benzazepin-3-one], the minimal effective dose in data set [2] was 2.32 mg/kg and 10 µmol/kg. Also, the “Stimulus initiating the avoidance reaction 24 hours after the first stimulation” value in data set [2] (subcut. dose 2.32 mg./kg.) is recorded as 90 g.

For the compound `CNC(=O)N1Cc2ccccc2[C@@H](C)[C@@H](C)C1=O` (relative stereo) [B, 4,5-dimethyl-2-methylcarbamoyl-1,2,4,5-tetrahydro-3H-2-benzazepin-3-one], in data set [1] (25 mg./kg. (0.1 mmole/kg.), control 1/10), the “Proportion of survivors, treated animals” value is 7/10. In addition, in data set [4] (24 mg./kg. (0.1 mmole/kg.)), the “spinal fixation … (animals)” value is given as “three animals out of seven”. Also, in data set [2], the minimal effective dose is 1.23 mg/kg and 5 µmol/kg. The “Stimulus initiating the avoidance reaction 24 hours after the first stimulation” value worked out at 124 g in data set [2] (subcut. dose 0.49 mg./kg., control (dose 0) 152) and 107 g in data set [2] (subcut. dose 1.23 mg./kg., control (dose 0) 152).

In the case of `CCCCC1Cc2ccccc2CN(C(=O)NC)C1=O` (stereo not shown) [I, 4-n-butyl-2-methylcarbamoyl-1,2,4,5-tetrahydro-3H-2-benzazepin-3-one], the “Proportion of survivors, treated animals” value in data set [1] (27 mg./kg. (0.1 mmole/kg.), control 1/10) was 7/10; in data set [1] (87 mg./kg. (0.32 mmole/kg.), control 1/10), 8/10.

Compound `CNC(=O)N1Cc2ccccc2CCC1=O` [A, 2-methylcarbamoyl-1,2,4,5-tetrahydro-3H-2-benzazepin-3-one] yielded an LD50 in data set [5] of over 1000 mg/kg. Also, in data set [1] (70 mg./kg. (0.32 mmole/kg.), control 1/10), the “Proportion of survivors, treated animals” value is 6/10. In addition, the “spinal fixation … (animals)” value in data set [4] (70 mg./kg. (0.3 mmole/kg.)) is recorded as “three animals out of five”. Moreover, in data set [2], the minimal effective dose was 2.18 mg/kg and 10 µmol/kg. Also, the “Stimulus initiating the avoidance reaction 24 hours after the first stimulation” value stood at 120 g in data set [2] (subcut. dose 1.09 mg./kg., control (dose 0) 159) and 89 g in data set [2] (subcut. dose 2.18 mg./kg., control (dose 0) 159).

Consider `CC1CC(=O)N(C(=O)N2CCOCC2)Cc2ccccc21` (stereo not shown) [C, 5-methyl-2-morpholinocarbonyl-1,2,4,5-tetrahydro-3H-2-benzazepin-3-one], for which the minimal effective dose in data set [2] is 2.88 mg/kg and 10 µmol/kg. Besides, the “Stimulus initiating the avoidance reaction 24 hours after the first stimulation” value is given as 116 g in data set [2] (subcut. dose 0.28 mg./kg., control (dose 0) 173) and 98 g in data set [2] (subcut. dose 2.88 mg./kg., control (dose 0) 173).
